Data published in patent US6541483B2, “Acridone-derived compounds useful as antineoplastic and antiretroviral agents” (The United States of America as represented by the …, priority 1996, dated 2003).

Legend:
[1] = system: human monocyte/macrophage cultures; assay: toxicity in monocyte/macrophage cultures; assay type: cell-based; details: human monocyte/macrophage cultures; read-out: Mo/Mφ IC50
Experimental: The antiviral properties of the WMC series of compounds were evaluated. First, all compounds were tested for their ability to inhibit HIV-1 replication in cell culture using the XTT cytoprotection assay. This assay measures the concentration-dependent capacity of compounds to protect CEM-SS cells from the cytopathic effects of HIV-1. […] Thus, temacrazine was the most efficacious compound in the XTT cytoprotection assay. This conclusion was also reached when the compounds were tested for anti-HIV-1 activity against HIV-1ADA in human monocyte/macrophage cultures (Table 1).

[2] = molecular target: T1, HIV-1 protease (Human immunodeficiency virus type 1 group M subtype B, UniProt P04585); assay: protease activity, HPLC-based assay; assay type: biochemical
[3] = molecular target: T1, HIV-1 protease; assay: Pr55gag processing assay with recombinant protease; assay type: biochemical; details: enzyme pretreated one hour at 37° C.
Experimental: However, to insure that the HPLC-based assay (used in Table 1) was providing accurate findings, the action of temacrazine in the Gag processing assay was evaluated. In this assay, purified recombinant HIV-1 protease enzyme was pretreated with the test reagent for one hour at 37° C., and then exposed the recombinant Pr55^gag precursor polyprotein to the treated enzyme.

[4] = system: HIV-1 proviral DNA formation (LTR/gag); assay: time course assay of proviral DNA formation; assay type: cell-based; details: amplified LTR/gag region
[5] = system: U1 cells; assay: viability of U1 cells; assay type: cell-based; details: 48 h
Experimental: As a model of the late phase events during the HIV-1 replication cycle, U1 cells were used that are latently infected with two copies of HIV-1 proviral DNA. The high level expression of virus production in these U1 cells can be stimulated by certain factors, such as TNF-α. U1 cells were stimulated with TNF-α for 24 hours, after which were added various concentrations of temacrazine, and the cultures were allowed to incubate for 48 additional hours. At that time, the cells were evaluated for viability and for their content of viral protein synthesis and processing, while the cell-free supernatant was evaluated for viral p24 content and for the infectious titer of released virions. […] Cell viability was diminished above 30 nM with these U1 cells.

[6] = system: HIV-1 in ACH-2 cells; assay: TNFα stimulated latently infected ACH-2 cells, virus production; assay type: cell-based; details: Human immunodeficiency virus 1, 72 h, read-out: EC50, inhibition of HIV-1 virus replication (virion-associated p24)
Experimental: In a similar study, cells were either treated for 24h with TNFα followed by the addition of temacrazine, or temacrazine and TNFα were added simultaneously, or temacrazine was added 24 h […] TNFα addition. After TNFα induction and temacrazine treatment, cultures were continued for 72 h after which virion-associated p24 and cell viability (XTT dye reduction) were measured.

[7] = system: CEM-SS cells; assay: 3H precursor incorporation in CEM-SS cells; assay type: cell-based
[8] = system: HIV-1 mRNA; assay: RT-PCR of HIV-1 mRNA expression and splicing after TNFα induction; assay type: cell-based
Experimental: Similar results were seen when temacrazine and TNFα were added simultaneously.
As a control the house keeping gene porphobilinogen deaminase (Hydroxymethylbilane synthase, “PBGD”) was amplified to determine uniformity of loading.

[9] = system: HIV-1 specific mRNA; assay: Northern blotting of total HIV-1 mRNA in U-1 cells; assay type: cell-based; details: TNFα stimulated U-1 cells
From the text: To assess the possibility that temacrazine was regulating HIV-1 mRNA expression, the expression of total HIV-1 mRNA by Northern blotting was examined (FIG. 16).

[10] = system: HIV-1RF; assay: nude mouse hollow fiber model of HIV-1 replication; assay type: in vivo, nude mice
From the text: The novel mechanism of action of temacrazine and its broad range of activity against HIV-1 and its high therapeutic indexes led us to assess its in vivo and anti-viral properties in a nude mouse hollow fiber model of HIV-1 replication. Briefly, CEM-SS cells are infected with HIV-1RF and placed into hollow fibers and implanted intraperitoneal or subcutaneously into nude mice. […] Similarly, mice are being treated by oral and intravenous administration of temacrazine. Peritoneal washes and serum samples were collected and p24 expression determined by antigen capture. Intraperitoneal administration of temacrazine reduced the amount of detectable p24 in peritoneal washes by 5 to 10 fold independently of the dosage schedule. […] Thus, temacrazine reduces HIV-1 replication in vivo.

[11] = system: HIV-1 virus; assay: direct treatment of HIV-1 virus, infection of CEM cells; assay type: cell-based
Experimental: As a result of these preliminary data, additional experiments were carried out to establish the antiviral activity in other cell lines, using a variety of protocols. The preliminary experiments in lymphocytes were confirmed using infected macrophages. Much more extensive experiments were carried out in HIV-1-infected CEM SS leukemia cells. […] However, two derivatives were found which had low antileukemic activity while maintaining high antiviral activity. […] This gives a therapeutic index of more than 3 orders of magnitude. The corresponding therapeutic index for WMC50 is about 100-200, which is quite acceptable. Additional experiments were carried out on WMC-70. […] Further, WMC-70 appears to affect post-transcription events in the virus. […] While the inhibition of integration appears to be the principal mechanism by which this compound exerts its antiviral activity, there are perhaps other mechanisms which are also involved in the therapeutic action of this drug, and by extension, of other antiviral drugs of this class.

[12] = 8.5 mg/kg q8h intraperitoneally
[13] = 12.5 mg/kg q12h intraperitoneally
[14] = 25 mg/kg q24h intraperitoneally

`O=c1c2ccccc2n2nnc3ccc(NCCCN4CCN(CCCNc5ccc6nnn7c8ccccc8c(=O)c5c67)CC4)c1c32` [temacrazine] was tested, and the IC50 [1] was 10 µM, the “inhibition of HIV protease” value [2] was “did not inhibit” and the “inhibition of protease in Gag processing assay” value [3] was “had no inhibitory effect”. The “formation of proviral DNA during reverse transcription” value [4] was “did not prevent the formation of proviral DNA”, the “concentration above which cell viability was diminished” value [5] was “above 30 nM” and the EC50 [6] was 0.01 to 0.1 µM. The “incorporation of 3H Leucine (protein metabolism)” value [7] was “no effect”, the “incorporation of 3H Thymidine (DNA replication)” value [7] was “no effect” and the “incorporation of 3H Uridine (RNA production)” value ([7]; CEM-SS cells) was “no effect”. For the same molecule, the “PBGD (house keeping gene) expression” value [8] was “did not decrease”, the “expression of unspliced or singly spliced mRNA” value ([8]; 500 and 50 nM, prior to or 24 h after TNFα induction) was “completely inhibited” and the “expression of HIV-1 multispliced transcripts” value ([8]; RT-PCR, rev independent mRNAs) was “did not alter”. For the same molecule, the “HIV-1 specific mRNA production” value ([9]; 1 nM) was “decrease in single spliced and unspliced mRNA with no apparent decrease in the multi-spliced mRNA”, the “HIV-1 specific mRNA production” value ([9]; 10 and 100 nM) was “suppressed mRNA production globally” and the “Peritoneal Wash p24, mean” value [10, 12] was 460 pg p24. For the same molecule, the “Serum p24, mean” value [10, 12] was 1790 pg p24, the “Peritoneal Wash p24, mean” value [10, 13] was 190 pg p24 and the “Serum p24, mean” value [10, 13] was 1863 pg p24. The “Peritoneal Wash p24, mean” value [10, 14] was 593 pg p24, the “Serum p24, mean” value [10, 14] was 2030 pg p24 and the “p24 in the serum” value ([10]; intraperitoneal, total 25 mg/kg per day for 6 days) was “reduced the amount of p24 in the serum”. For the same molecule, the “reduction of detectable p24 in peritoneal washes” value ([10]; intraperitoneal, total 25 mg/kg per day for 6 days, any schedule) was 5 to 10 fold and the “infectivity of drug-treated HIV-1 virus” value [11] was “appeared to prevent its ability to infect CEM cells”.
